In assay [1] the target is PIK3CD (Human) (UniProt O00329). Description: Enzyme Assay.
The target is the same in assay [2]. The assay can be described thus: Cell-Based Assay. Particulars: raji.
Assay [3] deals with PIK3CG (human) (UniProt P48736). The assay can be described thus: Enzyme Assay.
Assay [4] deals with PIK3CA (human) (UniProt P42336). The assay can be described thus: Enzyme Assay.
Assay [5] concerns the target PIK3CB (Human) (UniProt P42338). The assay can be described thus: Enzyme Assay.

Chain of PIK3CD (Human) (O00329 whole entry, looked up): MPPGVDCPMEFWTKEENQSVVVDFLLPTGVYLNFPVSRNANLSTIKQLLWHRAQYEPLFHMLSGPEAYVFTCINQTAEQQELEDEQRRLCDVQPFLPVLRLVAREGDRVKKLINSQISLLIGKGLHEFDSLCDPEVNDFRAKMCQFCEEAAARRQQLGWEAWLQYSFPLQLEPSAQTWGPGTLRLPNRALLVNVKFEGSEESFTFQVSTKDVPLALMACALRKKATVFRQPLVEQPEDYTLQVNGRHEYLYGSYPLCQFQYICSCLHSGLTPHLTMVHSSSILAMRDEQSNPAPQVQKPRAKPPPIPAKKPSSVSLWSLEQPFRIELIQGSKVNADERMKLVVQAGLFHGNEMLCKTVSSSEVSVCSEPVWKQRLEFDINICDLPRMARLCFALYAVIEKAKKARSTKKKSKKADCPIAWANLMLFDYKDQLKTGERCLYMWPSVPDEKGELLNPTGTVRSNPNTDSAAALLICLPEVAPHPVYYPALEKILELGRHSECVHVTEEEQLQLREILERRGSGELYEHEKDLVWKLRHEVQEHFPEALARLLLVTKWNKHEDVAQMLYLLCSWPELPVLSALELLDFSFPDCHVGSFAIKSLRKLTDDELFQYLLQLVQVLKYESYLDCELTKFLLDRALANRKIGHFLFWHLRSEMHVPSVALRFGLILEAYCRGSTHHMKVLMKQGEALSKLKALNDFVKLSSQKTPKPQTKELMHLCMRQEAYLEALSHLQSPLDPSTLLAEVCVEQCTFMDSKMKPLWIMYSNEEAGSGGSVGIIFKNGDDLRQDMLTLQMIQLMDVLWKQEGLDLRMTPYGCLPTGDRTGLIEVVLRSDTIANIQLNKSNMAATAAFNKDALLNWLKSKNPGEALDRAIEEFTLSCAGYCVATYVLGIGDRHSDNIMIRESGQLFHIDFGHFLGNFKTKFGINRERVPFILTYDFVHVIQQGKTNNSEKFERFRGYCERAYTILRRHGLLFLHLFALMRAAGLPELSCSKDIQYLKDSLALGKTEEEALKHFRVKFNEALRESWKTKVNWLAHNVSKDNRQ
Chain of PIK3CG (human) (P48736 whole entry, looked up): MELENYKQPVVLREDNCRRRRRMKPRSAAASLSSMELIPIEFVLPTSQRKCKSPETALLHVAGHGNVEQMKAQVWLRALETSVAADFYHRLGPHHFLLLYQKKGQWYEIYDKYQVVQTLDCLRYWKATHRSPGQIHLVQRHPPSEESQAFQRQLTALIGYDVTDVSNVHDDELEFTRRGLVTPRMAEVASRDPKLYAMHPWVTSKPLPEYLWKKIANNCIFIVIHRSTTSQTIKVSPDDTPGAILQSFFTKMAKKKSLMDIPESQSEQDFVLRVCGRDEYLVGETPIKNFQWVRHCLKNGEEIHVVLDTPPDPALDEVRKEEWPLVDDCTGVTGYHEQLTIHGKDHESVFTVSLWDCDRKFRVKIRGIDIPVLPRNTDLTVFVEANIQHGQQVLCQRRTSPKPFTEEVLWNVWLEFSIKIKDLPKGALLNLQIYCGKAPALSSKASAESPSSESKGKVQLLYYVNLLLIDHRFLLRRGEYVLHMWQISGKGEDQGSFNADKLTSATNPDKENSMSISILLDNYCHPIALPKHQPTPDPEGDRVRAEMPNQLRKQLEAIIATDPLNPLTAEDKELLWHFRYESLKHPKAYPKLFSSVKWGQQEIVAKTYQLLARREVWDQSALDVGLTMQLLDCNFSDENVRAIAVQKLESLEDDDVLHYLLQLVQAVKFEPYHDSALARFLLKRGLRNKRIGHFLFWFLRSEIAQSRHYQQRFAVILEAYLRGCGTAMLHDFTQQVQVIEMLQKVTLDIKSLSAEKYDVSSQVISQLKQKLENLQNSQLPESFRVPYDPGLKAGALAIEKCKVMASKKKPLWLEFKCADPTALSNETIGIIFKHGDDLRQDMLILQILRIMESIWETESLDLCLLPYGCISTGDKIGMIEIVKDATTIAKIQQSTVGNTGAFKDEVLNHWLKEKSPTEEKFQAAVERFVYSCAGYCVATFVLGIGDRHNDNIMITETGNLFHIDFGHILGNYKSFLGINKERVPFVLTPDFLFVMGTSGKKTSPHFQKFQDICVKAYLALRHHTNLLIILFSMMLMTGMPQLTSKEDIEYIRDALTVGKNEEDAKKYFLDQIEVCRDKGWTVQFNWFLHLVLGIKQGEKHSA
Chain of PIK3CA (human) (P42336 whole entry, looked up): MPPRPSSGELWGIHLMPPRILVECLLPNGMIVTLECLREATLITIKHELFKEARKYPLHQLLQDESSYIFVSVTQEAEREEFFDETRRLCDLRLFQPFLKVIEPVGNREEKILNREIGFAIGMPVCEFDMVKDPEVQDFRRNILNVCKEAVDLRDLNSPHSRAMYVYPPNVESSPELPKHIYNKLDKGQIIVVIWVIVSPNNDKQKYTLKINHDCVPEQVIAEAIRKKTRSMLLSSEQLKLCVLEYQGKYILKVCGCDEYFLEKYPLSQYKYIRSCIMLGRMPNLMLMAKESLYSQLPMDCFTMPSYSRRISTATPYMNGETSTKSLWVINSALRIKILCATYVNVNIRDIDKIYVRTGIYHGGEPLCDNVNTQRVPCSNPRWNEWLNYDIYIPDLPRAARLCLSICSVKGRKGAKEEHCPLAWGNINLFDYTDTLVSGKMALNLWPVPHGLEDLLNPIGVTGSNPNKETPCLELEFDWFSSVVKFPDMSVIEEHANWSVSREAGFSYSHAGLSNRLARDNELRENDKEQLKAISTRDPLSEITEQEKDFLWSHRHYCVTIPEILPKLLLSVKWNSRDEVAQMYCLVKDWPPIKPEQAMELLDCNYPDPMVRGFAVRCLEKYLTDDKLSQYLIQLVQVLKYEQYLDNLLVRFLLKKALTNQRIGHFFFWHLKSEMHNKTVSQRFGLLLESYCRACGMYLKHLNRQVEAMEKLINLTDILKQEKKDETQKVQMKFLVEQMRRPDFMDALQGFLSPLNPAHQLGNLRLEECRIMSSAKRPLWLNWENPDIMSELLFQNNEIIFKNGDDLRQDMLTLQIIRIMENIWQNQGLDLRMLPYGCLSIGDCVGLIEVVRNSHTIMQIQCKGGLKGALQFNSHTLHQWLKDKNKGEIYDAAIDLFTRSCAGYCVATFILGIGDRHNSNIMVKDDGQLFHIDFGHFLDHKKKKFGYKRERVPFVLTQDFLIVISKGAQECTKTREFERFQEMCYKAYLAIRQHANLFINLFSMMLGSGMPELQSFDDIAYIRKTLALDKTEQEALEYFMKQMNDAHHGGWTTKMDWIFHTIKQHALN
Chain of PIK3CB (Human) (P42338 whole entry, looked up): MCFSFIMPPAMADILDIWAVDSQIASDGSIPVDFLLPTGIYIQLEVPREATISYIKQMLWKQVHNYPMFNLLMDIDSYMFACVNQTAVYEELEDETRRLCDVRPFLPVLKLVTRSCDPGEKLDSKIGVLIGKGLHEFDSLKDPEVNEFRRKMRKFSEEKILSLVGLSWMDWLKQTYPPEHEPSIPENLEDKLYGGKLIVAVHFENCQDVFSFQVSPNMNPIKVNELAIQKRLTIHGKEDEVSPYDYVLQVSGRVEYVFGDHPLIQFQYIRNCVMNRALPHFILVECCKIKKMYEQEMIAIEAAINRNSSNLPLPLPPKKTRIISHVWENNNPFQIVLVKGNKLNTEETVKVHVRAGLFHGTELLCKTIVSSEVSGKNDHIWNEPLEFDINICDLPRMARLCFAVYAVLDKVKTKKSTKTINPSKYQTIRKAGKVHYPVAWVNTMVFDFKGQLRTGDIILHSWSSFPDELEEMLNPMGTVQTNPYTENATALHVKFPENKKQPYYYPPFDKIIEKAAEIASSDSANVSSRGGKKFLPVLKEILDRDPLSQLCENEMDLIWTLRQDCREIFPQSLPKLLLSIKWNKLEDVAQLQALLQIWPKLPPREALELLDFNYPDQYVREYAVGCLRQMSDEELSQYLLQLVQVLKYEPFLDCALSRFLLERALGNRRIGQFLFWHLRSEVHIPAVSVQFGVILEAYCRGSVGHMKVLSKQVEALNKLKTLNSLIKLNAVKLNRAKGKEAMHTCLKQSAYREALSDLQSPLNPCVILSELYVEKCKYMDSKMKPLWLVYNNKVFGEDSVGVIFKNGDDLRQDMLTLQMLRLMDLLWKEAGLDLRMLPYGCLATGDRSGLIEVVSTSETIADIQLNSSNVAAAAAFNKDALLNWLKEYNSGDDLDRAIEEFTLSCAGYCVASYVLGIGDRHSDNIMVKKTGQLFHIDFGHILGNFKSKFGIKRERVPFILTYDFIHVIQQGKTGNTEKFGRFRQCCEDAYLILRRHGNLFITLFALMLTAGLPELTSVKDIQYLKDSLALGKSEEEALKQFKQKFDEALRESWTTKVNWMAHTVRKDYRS

One may read the IC50 as the point on the concentration scale where inhibition reaches its midpoint. A low value points to greater potency in that assay. In the case of `C[C@H](NC(=O)c1nc(-c2cnn(C)c2)cnc1N)c1cc2cccc(Cl)c2c(=O)n1-c1ccccc1`, the IC50 in assay [1] was at least 10000 nM; in assay [2], 100 to 1000 nM.
In the case of `C[C@H](NC(=O)c1c(N)nn2cccnc12)c1cc2cccc(-c3cnn(C)c3)c2c(=O)n1-c1ccccc1`, the IC50 in assay [3] was 100 to 1000 nM; in assay [4], at least 10 µM; in assay [5], at least 10 µM; in assay [2] it was under 100 nM.
Take `C[C@H](NC(=O)c1c(N)nn2cccnc12)c1cc2cccc(C#CCNC(=O)C3CCC(=O)C3)c2c(=O)n1-c1ccccc1` (some centres not stated): the IC50 in assay [3] was under 100 nM; in assay [4], 0.1 to 1 µM; in assay [2], under 100 nM.
Regarding `COc1cc(-c2cccc3cc([C@H](C)NC(=O)c4ncc(C)nc4N)n(-c4ccccc4)c(=O)c23)ccn1`, the figures for the IC50 in assay [4], in assay [5] and in assay [2] were at least 10 µM, at least 10 µM and 100 to 1000 nM, respectively.
Regarding `C[C@H](NC(=O)c1c(N)nn2cccnc12)c1cc2cccc(C(F)(F)F)c2c(=O)n1-c1ccccc1`, the results for the IC50 in assay [3], in assay [4] and in assay [2] were 100 to 1000 nM, at least 10 µM and under 100 nM, respectively.
Consider `C=CCn1c([C@H](C)NC(=O)c2c(N)nn3cccnc23)cc2cccc(Cl)c2c1=O`, for which the IC50 in assay [1] is 100 to 1000 nM; in assay [3] it was 100 to 1000 nM; in assay [5], under 0.1 µM; in assay [2] it was under 100 nM.
As to `COc1cccc2cc([C@H](C)NC(=O)c3c(N)nn4cccnc34)n(-c3ccccc3)c(=O)c12`, the concentration for half-maximal inhibition (IC50) was at least 10 µM in assay [4], at least 10 µM in assay [5] and 100 to 1000 nM in assay [2].
Take `CNc1cccc2cc([C@H](C)NC(=O)c3c(N)nn4cccnc34)n(-c3ccccc3)c(=O)c12`: the IC50 in assay [1] was at least 10000 nM; in assay [5], at least 10 µM; in assay [2], 100 to 1000 nM.
In the case of `C[C@H](NC(=O)c1nc(-c2cccc(NS(=O)(=O)N(C)C)c2)cnc1N)c1cc2cccc(Cl)c2c(=O)n1-c1ccccc1`, the concentration for half-maximal inhibition (IC50) in assay [1] is 100 to 1000 nM; in assay [3], under 100 nM; in assay [5] it was 0.1 to 1 µM; in assay [2], under 100 nM.
Consider `CC[C@H](NC(=O)c1c(N)nn2cccnc12)c1cc2cccc(Cl)c2c(=O)n1-c1ccccc1`, for which the half-maximal inhibitory concentration (IC50) in assay [1] is under 100 nM; in assay [3], 100 to 1000 nM; in assay [5], under 0.1 µM; in assay [2], under 100 nM.
`COc1cccc2c(Br)c([C@H](C)NC(=O)c3c(N)nn4cccnc34)n(-c3ccccc3)c(=O)c12`: the IC50 in assay [3] was 100 to 1000 nM; in assay [4] it was at least 10 µM; in assay [5] it was at least 10 µM.
`C[C@H](NC(=O)c1c(N)nn2cccnc12)c1cc2cccc(OC(F)(F)F)c2c(=O)n1-c1ccccc1`: the half-maximal inhibitory concentration (IC50) in assay [4] and in assay [5] was at least 10 µM each time.
Regarding `COc1ncc(-c2cccc3cc([C@H](C)NC(=O)c4c(N)nn5cccnc45)n(-c4ccccc4)c(=O)c23)s1`, the IC50 in assay [3] was 100 to 1000 nM; in assay [4], at least 10 µM; in assay [5], at least 10 µM.
In the case of `C[C@H](NC(=O)c1c(N)nn2cccnc12)c1cc2cccc(Cl)c2c(=O)n1C`, the IC50 in assay [1] is 100 to 1000 nM; in assay [3], 100 to 1000 nM; in assay [5], under 0.1 µM; in assay [2], under 100 nM.
With `C[C@H](NC(=O)c1c(N)nn2cccnc12)c1cc2cccc(CO)c2c(=O)n1-c1ccccc1`, the figures for the IC50 in assay [3], in assay [4] and in assay [2] were 100 to 1000 nM, at least 10 µM and 100 to 1000 nM, respectively.
Turning to `COc1ccc(-c2cnc(N)c(C(=O)N[C@@H](C)c3cc4cccc(Cl)c4c(=O)n3-c3ccccc3)n2)cc1NS(C)(=O)=O`, the IC50 in assay [3] is under 100 nM; in assay [4] it was 0.1 to 1 µM; in assay [5], 0.1 to 1 µM; in assay [2], under 100 nM.
`COc1ccc(-c2cccc3cc([C@H](C)NC(=O)c4c(N)nn5cccnc45)n(-c4ccccc4)c(=O)c23)cn1`: the IC50 in assay [3] is 100 to 1000 nM; in assay [4], at least 10 µM; in assay [5] it was at least 10 µM; in assay [2], under 100 nM.
For the molecule `C[C@H](NC(=O)c1c(N)nn2cccnc12)c1cc2ccccc2c(=O)n1-c1ccccc1`, the IC50 was 100 to 1000 nM in assay [3], at least 10 µM in assay [4] and 100 to 1000 nM in assay [2].
For `C[C@H](NC(=O)c1c(N)nn2cccnc12)c1cc2cccc(C#CCNC(=O)C3CC(=O)CC(=O)C3)c2c(=O)n1-c1ccccc1`, the IC50 is 100 to 1000 nM in assay [1] and under 100 nM in assay [3].
`C[C@H](NC(=O)c1nc(-c2cscn2)cnc1N)c1cc2cccc(Cl)c2c(=O)n1-c1ccccc1`: the results for the IC50 in assay [1], in assay [3] and in assay [2] were at least 10000 nM, 100 to 1000 nM and 100 to 1000 nM, respectively.
`CC(C)Oc1ccc(-c2cnc(N)c(C(=O)N[C@@H](C)c3cc4cccc(Cl)c4c(=O)n3-c3ccccc3)n2)cn1`: the 50% inhibitory concentration (IC50) in assay [4] was at least 10 µM; in assay [5], at least 10 µM; in assay [2], 100 to 1000 nM.

The values are drawn from the Kinase Knowledgebase extract (Sharma et al. 2016).
